Activity calls are given as the source filed them. No cut-off for these calls is given here.
Columns and labels:
[1] = tested on: Huh-7; test: Induction of apoptosis in human HuH7 cells overexpressing EGFP at 100 uM incubated for 48 hrs by annexin V and 7-AAD staining based assay; type: functional, cell-based
[2] = molecular target: T1, Serine/threonine-protein kinase Sgk1 (Homo sapiens) (UniProt O00141); test: Inhibition of SGK1 in human HUH7 cells at 100 uM using peptide as substrate incubated for 6 hrs by scintillation counter method; type: cell-based
T1 sequence (whole entry): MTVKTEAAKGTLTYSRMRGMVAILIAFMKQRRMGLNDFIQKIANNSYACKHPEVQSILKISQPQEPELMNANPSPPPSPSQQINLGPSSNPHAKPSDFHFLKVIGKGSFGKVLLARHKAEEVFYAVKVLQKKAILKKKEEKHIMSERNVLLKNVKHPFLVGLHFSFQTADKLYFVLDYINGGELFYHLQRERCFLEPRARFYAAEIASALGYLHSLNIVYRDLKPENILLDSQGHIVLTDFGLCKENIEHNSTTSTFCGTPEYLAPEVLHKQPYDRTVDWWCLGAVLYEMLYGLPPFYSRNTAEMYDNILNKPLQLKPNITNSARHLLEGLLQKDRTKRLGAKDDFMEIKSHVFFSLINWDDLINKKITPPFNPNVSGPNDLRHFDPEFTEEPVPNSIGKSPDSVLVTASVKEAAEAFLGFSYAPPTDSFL

[3] = tested on: Huh-7; test: Antiproliferative activity against human HuH7 cells overexpressing SGK1 assessed as reduction in cell viability at 100 uM incubated for 48 hrs by trypan blue dye based assay; type: functional
[4] = tested on: Huh-7; test: Induction of apoptosis in human HuH7 cells assessed as increase in late apoptotic cells at 100 uM incubated for 48 hrs by annexin V and 7-AAD staining based assay; type: functional, cell-based
[5] = tested on: Huh-7; test: Induction of apoptosis in human HuH7 cells assessed as increase in necrotic cells at 100 uM incubated for 48 hrs by annexin V and 7-AAD staining based assay; type: functional, cell-based
[6] = molecular target: T1, Serine/threonine-protein kinase Sgk1 (Homo sapiens); test: Inhibition of recombinant human N-terminal His-tagged SGK1 at 50 uM using (GRPRTSSFAEGKK) peptide as substrate incubated for 30 mins in presence of [32P] gamma ATP by scintillation counter method
[7] = tested on: Huh-7; test: Induction of apoptosis in human HuH7 cells transfected with ShSGK1 assessed as late apoptosis at 100 uM incubated for 48 hrs by annexin V and 7-AAD staining based assay; type: functional, cell-based
[8] = tested on: Huh-7; test: Induction of apoptosis in human HuH7 cells overexpressing SGK1 at 100 uM incubated for 48 hrs by annexin V and 7-AAD staining based assay; type: functional, cell-based
[9] = tested on: Huh-7; test: Antiproliferative activity against human HuH7 cells overexpressing EGFP assessed as reduction in cell viability at 100 uM incubated for 48 hrs by trypan blue dye based assay; type: functional
[10] = molecular target: T1, Serine/threonine-protein kinase Sgk1 (Homo sapiens); test: Inhibition of recombinant human N-terminal His-tagged SGK1 using (GRPRTSSFAEGKK) peptide as substrate incubated for 30 mins in presence of [32P] gamma ATP by scintillation counter method
[11] = tested on: Huh-7; test: Induction of apoptosis in human HuH7 cells assessed as increase in early apoptotic cells at 100 uM incubated for 48 hrs by annexin V and 7-AAD staining based assay; type: functional, cell-based
[12] = molecular target: T1, Serine/threonine-protein kinase Sgk1 (Homo sapiens); test: Inhibition of insulin-induced SGK1 in human HUH7 cells at 100 uM using peptide as substrate incubated for 6 hrs by scintillation counter method; type: cell-based
[13] = molecular target: T1, Serine/threonine-protein kinase Sgk1 (Homo sapiens); test: Inhibition of SGK1 in human HuH7 cells assessed as reduction in insulin-induced MDM2 phosphorylation on Ser166 at 100 uM incubated for 6 hrs by Western blot analysis; type: cell-based
[14] = tested on: Huh-7; test: Antiproliferative activity against human HuH7 cells transfected with ShSGK1 assessed as reduction in cell viability at 100 uM incubated for 48 hrs by trypan blue dye based assay; type: functional
[15] = tested on: Huh-7; test: Induction of apoptosis in human HuH7 cells transfected with ShSGK1 assessed as early apoptosis at 100 uM incubated for 48 hrs by annexin V and 7-AAD staining based assay; type: functional, cell-based
[16] = tested on: Huh-7; test: Antiproliferative activity against human HuH7 cells assessed as reduction in cell viability at 100 uM incubated for 48 hrs by trypan blue dye based assay; type: functional

Oc1ccc(/C=C/c2cc(O)cc(O)c2)cc1
Activity [1]: Active | inhibition [2]: inactive | Activity [3]: inactive | Activity [4]: Active | Activity [5]: Active | inhibition [6]: 50% | Activity [7]: Active | Activity [8]: inactive | Activity [9]: Active | inhibition [10]: Dose-dependent effect | Activity [11]: Active | inhibition [12]: Active | inhibition [13]: Active | Activity [14]: Active | Activity [15]: Active | Activity [16]: Active

Reference: ChEMBL document CHEMBL4406850, “Review about the multi-target profile of resveratrol and its implication in the SGK1 inhibition” (Eur J Med Chem, 2019)
